The nature of data set [1]: Measurement of log P values by HPLC on reversed phase columns (methods [a] pH 2.3, [b] pH 2.7, [c] pH 7.8). In kind it is physicochemical. The method, boiled down:
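Retention times were converted to log P by linear interpolation between linear alkan-2-one standards (3 to 16 carbons) of known log P. Eluents, each with 10% to 95% acetonitrile gradient: phosphoric acid 0.1% at pH 2.3 [a]; formic acid 0.1% at pH 2.7, LC-MS [b]; ammonium hydrogen carbonate 0.001 molar at pH 7.8, LC-MS [c].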

A further data set concerns Meloidogyne incognita. Description: Meloidogyne incognita test (MELGIN), gall formation on salad seedlings. In kind it is in vivo. Particulars: application rate 20 ppm, after 14 days. As for the experimental part: Meioidovnve incomita—Test (MELGIN)
Solvent: 125.0 parts by weight of acetone
To produce a suitable preparation of active compound, 1 part by weight of active compound is mixed with the stated amount of solvent, and the concentrate is diluted with water to the desired concentration.
Vessels are filled with sand, a solution of the active ingredient, a suspension containing eggs and larvae of the southern root-knot nematode (Meloidogyne incognita) and salad seeds. The salad seeds germinate and the seedlings grow. Galls develop in the roots.
After 14 days the nematicidal activity is determined on the basis of the percentage of gall formation. 100% means that no galls were found; 0% means the number of galls found on the roots of the treated plants was equal to that in untreated control plants.

The mark [2] stands for this setting: HPLC reversed phase, method [b] (pH 2.7).
Where [3] appears, read: HPLC on reversed phase column, method [b], pH 2.7.
Setting [4] is: HPLC on reversed phase column, method [c], pH 7.8.

As to `O=C(N[C@@H]1CC[C@@H]1c1c(F)cccc1C(F)(F)F)c1ccccc1Cl` (relative stereo) [Compound 553], the logP in data set [1] (setting [2]) is 3.42^[b]. Besides, the “nematicidal activity (percentage of gall formation; 100% = no galls)” value in the data set with Meloidogyne incognita turned out to be 100%.

In the case of `O=C(N[C@@H]1CC[C@@H]1c1ccccc1Cl)c1cccnc1` (relative stereo) [Compound 555], the logP in data set [1] (setting [2]) was 1.18^[b]. Further, the “nematicidal activity (percentage of gall formation; 100% = no galls)” value with Meloidogyne incognita is listed as 90%.

For `Cn1cc(C(=O)N[C@@H]2CC[C@@H]2c2cc(F)ccc2C(F)(F)F)c(C(F)F)n1` (relative stereo) [Compound 556], the logP in data set [1] (setting [2]) was 2.85^[b]. For the same compound, the “nematicidal activity (percentage of gall formation; 100% = no galls)” value with Meloidogyne incognita is 90%.

On to `O=C(N[C@@H]1C[C@@H]1c1ccc(Cl)cc1Cl)c1ccccc1[N+](=O)[O-]` (relative stereo) [Compound 558], for which, in data set [1] (setting [2]), the logP was 2.94^[b]. In the data set with Meloidogyne incognita, the “nematicidal activity (percentage of gall formation; 100% = no galls)” value was 100%.

As for `O=C(N[C@@H]1CC[C@@H]1c1cc(F)ccc1C(F)(F)F)c1nccnc1Cl` (relative stereo) [Compound 559], the logP in data set [1] (setting [2]) is 2.88^[b]. For the same compound, in the data set with Meloidogyne incognita, the “nematicidal activity (percentage of gall formation; 100% = no galls)” value turned out to be 100%.

In the case of `O=C(N[C@@H]1CC[C@@H]1c1cc(F)ccc1C(F)(F)F)c1ccccc1Br` (relative stereo) [Compound 560], the logP in data set [1] (setting [2]) is 3.38^[b]. Moreover, in the data set on Meloidogyne incognita, the “nematicidal activity (percentage of gall formation; 100% = no galls)” value is 100%.

For `O=C(N[C@@H]1CC[C@@H]1c1c(F)cccc1C(F)(F)F)c1ccccc1[N+](=O)[O-]` (relative stereo) [Compound 561], the logP in data set [1] (setting [2]) is 3.03^[b]. The “nematicidal activity (percentage of gall formation; 100% = no galls)” value in the data set on Meloidogyne incognita is listed as 100%.

Consider `O=C(N[C@@H]1CC[C@@H]1c1c(F)cccc1C(F)(F)F)c1ccccc1Br` (relative stereo) [Compound 563], for which the logP in data set [1] (setting [2]) was 3.46^[b]. In addition, in the data set on Meloidogyne incognita, the “nematicidal activity (percentage of gall formation; 100% = no galls)” value was found to be 100%.

For `O=C(N[C@@H]1CC[C@@H]1c1c(F)cccc1C(F)(F)F)c1c(F)cccc1F` (relative stereo) [Compound 564], the logP in data set [1] (setting [2]) is 3.25^[b]. The “nematicidal activity (percentage of gall formation; 100% = no galls)” value in the data set with Meloidogyne incognita is reported as 100%.

With `O=C(N[C@@H]1C[C@@H]1c1ccc(Cl)cc1Cl)c1nccnc1C(F)(F)F` (relative stereo) [Compound 566], in data set [1] (setting [2]), the logP was 3.11^[b]. Further, the “nematicidal activity (percentage of gall formation; 100% = no galls)” value in the data set on Meloidogyne incognita was found to be 90%.

Regarding `O=C(N[C@@H]1C[C@@H]1c1ccc(Cl)cc1Cl)c1nccnc1Cl` (relative stereo) [Compound 567], the logP in data set [1] (setting [2]) is 2.75^[b]. Also, in the data set on Meloidogyne incognita, the “nematicidal activity (percentage of gall formation; 100% = no galls)” value was 90%.

Regarding `O=C(N[C@@H]1CC[C@@H]1c1cc(F)ccc1C(F)(F)F)c1sccc1I` (relative stereo) [Compound 570], the logP in data set [1] (setting [2]) was 3.79^[b]. For the same compound, the “nematicidal activity (percentage of gall formation; 100% = no galls)” value with Meloidogyne incognita is recorded as 100%.

As for `O=C(N[C@@H]1CC[C@@H]1c1cc(F)ccc1C(F)(F)F)c1cccnc1Cl` (relative stereo) [Compound 571], the logP in data set [1] (setting [2]) is 2.75^[b]. The “nematicidal activity (percentage of gall formation; 100% = no galls)” value in the data set with Meloidogyne incognita was 100%.

As to `O=C(N[C@@H]1CC[C@@H]1c1cc(F)ccc1C(F)(F)F)c1cccnc1C(F)(F)F` (relative stereo) [Compound 572], the logP in data set [1] (setting [2]) was 3.06^[b]. In the data set with Meloidogyne incognita, the “nematicidal activity (percentage of gall formation; 100% = no galls)” value was 100%.

As to `Cn1cc(C(=O)N[C@@H]2CC[C@@H]2c2c(F)cccc2C(F)(F)F)c(C(F)F)n1` (relative stereo) [Compound 574], in data set [1] (setting [2]), the logP is 2.91^[b]. Besides, the “nematicidal activity (percentage of gall formation; 100% = no galls)” value in the data set on Meloidogyne incognita is 100%.

Turning to `O=C(N[C@@H]1CC[C@@H]1c1c(F)cccc1C(F)(F)F)c1cccnc1Cl` (relative stereo) [Compound 575], the logP in data set [1] (setting [2]) is 2.83^[b]. Moreover, in the data set with Meloidogyne incognita, the “nematicidal activity (percentage of gall formation; 100% = no galls)” value stood at 100%.

Turning to `O=C(N[C@@H]1CC[C@@H]1c1c(F)cccc1C(F)(F)F)c1nccnc1Cl` (relative stereo) [Compound 576], the logP in data set [1] (setting [2]) was 3.02^[b]. Besides, in the data set with Meloidogyne incognita, the “nematicidal activity (percentage of gall formation; 100% = no galls)” value stood at 100%.

In the case of `O=C(N[C@@H]1CC[C@@H]1c1c(F)cccc1C(F)(F)F)c1cccnc1C(F)(F)F` (relative stereo) [Compound 577], in data set [1] (setting [2]), the logP is 3.81^[b]. The “nematicidal activity (percentage of gall formation; 100% = no galls)” value with Meloidogyne incognita amounted to 100%.

In the case of `O=C(N[C@@H]1CC[C@@H]1c1c(F)cccc1C(F)(F)F)c1sccc1I` (relative stereo) [Compound 584], in data set [1] (setting [2]), the logP is 4.00^[b]. Besides, the “nematicidal activity (percentage of gall formation; 100% = no galls)” value in the data set with Meloidogyne incognita worked out at 100%.

Take `O=C(N[C@@H]1CC[C@@H]1c1c(F)cccc1C(F)(F)F)c1ccccc1C(F)(F)F` (relative stereo) [Compound 585]: the logP in data set [1] (setting [2]) was 3.60^[b]. Moreover, the “nematicidal activity (percentage of gall formation; 100% = no galls)” value in the data set with Meloidogyne incognita was 100%.

As to `O=C(N[C@@H]1CC[C@@H]1c1cc(F)ccc1C(F)(F)F)c1ccccc1C(F)(F)F` (relative stereo) [Compound 586], in data set [1] (setting [2]), the logP is 3.53^[b]. The “nematicidal activity (percentage of gall formation; 100% = no galls)” value in the data set on Meloidogyne incognita amounted to 100%.

Take `O=C(N[C@@H]1CC[C@@H]1c1cc(F)ccc1C(F)(F)F)c1cccnc1` (relative stereo) [Compound 587]: the logP in data set [1] (setting [2]) is 2.22^[b]. Besides, the “nematicidal activity (percentage of gall formation; 100% = no galls)” value in the data set with Meloidogyne incognita came out at 90%.

On to `O=C(N[C@@H]1CC[C@@H]1c1cccc(F)c1C(F)(F)F)c1ccccc1C(F)(F)F` (relative stereo) [Compound 589], for which the logP in data set [1] (setting [2]) is 3.38^[b]. The “nematicidal activity (percentage of gall formation; 100% = no galls)” value in the data set on Meloidogyne incognita was found to be 100%.

As to `O=C(N[C@@H]1CC[C@@H]1c1cccc(F)c1C(F)(F)F)c1ccccc1` (relative stereo) [Compound 592], in data set [1] (setting [3]), the logP was 3.01^[b]. In addition, the “nematicidal activity (percentage of gall formation; 100% = no galls)” value in the data set with Meloidogyne incognita is listed as 100%.

As for `O=C(N[C@@H]1CC[C@@H]1c1cccc(F)c1C(F)(F)F)c1ccc(Cl)cc1Cl` (relative stereo) [Compound 594], in data set [1] (setting [3]), the logP is 3.73^[b]. The “nematicidal activity (percentage of gall formation; 100% = no galls)” value in the data set with Meloidogyne incognita amounted to 90%.

Take `O=C(N[C@@H]1CC[C@@H]1c1cccc(F)c1C(F)(F)F)c1ccc(Cl)cc1` (relative stereo) [Compound 595]: the logP in data set [1] (setting [3]) was 3.47^[b]. Further, the “nematicidal activity (percentage of gall formation; 100% = no galls)” value in the data set with Meloidogyne incognita is given as 100%.

For the compound `O=C(N[C@@H]1CC[C@@H]1c1cccc(F)c1C(F)(F)F)c1ccccc1I` (relative stereo) [Compound 599], in data set [1] (setting [3]), the logP is 3.39^[b]. For the same compound, the “nematicidal activity (percentage of gall formation; 100% = no galls)” value in the data set with Meloidogyne incognita is listed as 100%.

With `O=C(N[C@@H]1CC[C@@H]1c1cccc(F)c1C(F)(F)F)c1ccccc1Cl` (relative stereo) [Compound 601], in data set [1] (setting [3]), the logP is 3.23^[b]. In addition, the “nematicidal activity (percentage of gall formation; 100% = no galls)” value with Meloidogyne incognita worked out at 100%.

`O=C(N[C@@H]1C[C@@H]1c1ccc(Cl)cc1Cl)c1ncccc1Br` (relative stereo) [Compound 608]: the logP in data set [1] (setting [3]) was 2.98^[b]; in data set [1] (setting [4]) it was 2.99^[c];. The “nematicidal activity (percentage of gall formation; 100% = no galls)” value in the data set with Meloidogyne incognita is on record as 100%.

For the compound `CS(=O)(=O)c1ccccc1C(=O)N[C@@H]1C[C@@H]1c1ccc(Cl)cc1Cl` (relative stereo) [Compound 609], the logP is 2.62^[b] in data set [1] (setting [3]) and 2.61^[c]; in data set [1] (setting [4]). Further, the “nematicidal activity (percentage of gall formation; 100% = no galls)” value in the data set with Meloidogyne incognita is recorded as 100%.

Consider `Cc1occc1C(=O)N[C@@H]1C[C@@H]1c1ccc(Cl)cc1Cl` (relative stereo) [Compound 611], for which the logP in data set [1] (setting [3]) is 3.02^[b]; in data set [1] (setting [4]), 2.89^[c];. In addition, the “nematicidal activity (percentage of gall formation; 100% = no galls)” value in the data set with Meloidogyne incognita was 90%.

As to `O=C(N[C@@H]1CC[C@@H]1c1cccc(F)c1C(F)(F)F)c1ncccc1Cl` (relative stereo) [Compound 617], the logP in data set [1] (setting [3]) was 2.97^[b]. Moreover, the “nematicidal activity (percentage of gall formation; 100% = no galls)” value in the data set with Meloidogyne incognita turned out to be 100%.

Turning to `O=C(N[C@@H]1CC[C@@H]1c1ccccc1C(F)(F)F)c1cccnc1` (relative stereo) [Compound 619], the logP in data set [1] (setting [3]) is 2.06^[b]. Further, in the data set with Meloidogyne incognita, the “nematicidal activity (percentage of gall formation; 100% = no galls)” value stood at 90%.

For the compound `O=C(N[C@@H]1CC[C@@H]1c1ccccc1C(F)(F)F)c1nccnc1Cl` (relative stereo) [Compound 623], the logP in data set [1] (setting [3]) was 2.79^[b]. Besides, the “nematicidal activity (percentage of gall formation; 100% = no galls)” value in the data set with Meloidogyne incognita stood at 100%.

With `O=C(N[C@@H]1CC[C@@H]1c1cccc(F)c1C(F)(F)F)c1ccccc1[N+](=O)[O-]` (relative stereo) [Compound 630], the logP in data set [1] (setting [3]) is 2.94^[b]. In the data set with Meloidogyne incognita, the “nematicidal activity (percentage of gall formation; 100% = no galls)” value was 100%.

In the case of `O=C(N[C@@H]1CC[C@@H]1c1cccc(F)c1C(F)(F)F)c1cccnc1` (relative stereo) [Compound 631], in data set [1] (setting [3]), the logP is 2.12^[b]. Besides, the “nematicidal activity (percentage of gall formation; 100% = no galls)” value with Meloidogyne incognita is 90%.

For the compound `O=C(N[C@@H]1CC[C@@H]1c1ccccc1C(F)(F)F)c1ccccc1[N+](=O)[O-]` (relative stereo) [Compound 638], the logP in data set [1] (setting [3]) is 2.93^[b]. In addition, the “nematicidal activity (percentage of gall formation; 100% = no galls)” value with Meloidogyne incognita is recorded as 100%.

For `O=C(N[C@@H]1CC[C@@H]1c1cccc(F)c1C(F)(F)F)c1c(F)cccc1F` (relative stereo) [Compound 639], in data set [1] (setting [3]), the logP was 3.08^[b]. In the data set with Meloidogyne incognita, the “nematicidal activity (percentage of gall formation; 100% = no galls)” value is listed as 100%.
